pEC50: −log10 of the molar value. Several values for one entry are separate records, joined by “and”; a condition that tells them apart may be missing. Equal entries are not always repeated.
How the values were obtained:
[1] = system: SARS-CoV-2; experiment: Viral loading determination via RT-qPCR in LC-HK2 cells; type: cell-based; conditions: LC-HK2, RT-qPCR
[2] = system: SARS-CoV-2; experiment: Cytopathic effect inhibition assay in VERO-CCL81 cells; type: cell-based; conditions: for CPE inhibition (%): VERO CCL81, two experiments, listed as S-Calpepin
[3] = system: SARS-CoV-2; experiment: Cytopathic effect inhibition assay in LC-HK2 cells; type: cell-based; conditions: for CPE inhibition (%): LC-HK2
[4] = system: VERO-CCL81 cells; experiment: Cell viability assay (CellTiter-Glo), VERO-CCL81; type: cell-based; conditions: for Cell viability (% control): VERO CCL81, 72 h, replicates of experiments 1 and 2
Description: (§1) VERO-CCL81 was seeded in 96-well plates at a density of 1.5×10^4 cells/well, while LC-HK2 was seeded at a density of 3×10^4 cells/well, following 24 h incubation at 37 °C and 5% CO2 atmosphere. The cell culture media was replaced by serial dilutions of the compounds and the cell viability was determined 72 h post-treatment via CellTiter-Glo® Luminescent Cell Viability Assay (Promega), following the manufacturer’s instructions. Luminescent signal was recorded using a CLARIOstar multi-mode microplate reader (BMG Labtech, Germany). Graphs were generated using GraphPad Prism software version 8.0 (La Jolla, CA, USA, www.graphpad.com). Samples deemed to be technical failures and extreme outlier were removed.

[5] = system: LC-HK2 cells; experiment: Cell viability assay (CellTiter-Glo), LC-HK2; type: cell-based, human; conditions: for Cell viability (% control): LC-HK2, 72 h, replicates
Description: as §1

## CCCC[C@H](NC(=O)[C@H](CC(C)C)NC(=O)OCc1ccccc1)C(O)S(=O)(=O)[O-].[Na+] (stereo partly drawn) [S-Calpeptin]
[1]; 2.5 μM, listed as S-Calpepin
  Viral titer (% control): 33.13 % control and 30.16 % control
[1]; 100 μM
  Viral titer (% control): 0 % control
[2]; 0.0781 μM
  CPE inhibition (%): 0% and 0.33%
[2]; 0.625 μM
  CPE inhibition (%): 38.01% and 20.29%
[2]; 1.25 μM
  CPE inhibition (%): 52.68% and 61.52%
[2]; 2.5 μM
  CPE inhibition (%): 60.88% and 68.39%
[2]; 5 μM
  CPE inhibition (%): 63.97% and 88.53%
[2]; 10 μM
  CPE inhibition (%): 67.47% and 80.91%
[2]; VERO-CCL81, CellTiter-Glo, 48 h post-infection, read-out: CPE inhibition EC50
  pEC50: 6.15
[3]; LC-HK2, CellTiter-Glo, 72 h post-infection, read-out: CPE inhibition EC50
  pEC50: 7.15
[3]; 0.000000000001 μM (first of two lines so printed, r18)
  CPE inhibition (%): 0%
[3]; 0.000000000001 μM (second line, r19)
  CPE inhibition (%): 0%
[3]; 0.00000000001 μM
  CPE inhibition (%): 0%
[3]; 0.0000000001 μM
  CPE inhibition (%): 0%
[3]; 0.000000001 μM
  CPE inhibition (%): 0%
[3]; 0.00000001 μM, listed as S-Calpepin, 10 fM
  CPE inhibition (%): 4.03% and 3.04%
[3]; 0.0000001 μM, listed as S-Calpepin, 100 fM
  CPE inhibition (%): 0% and 1.04%
[3]; 0.000001 μM, listed as S-Calpepin, 1 pM
  CPE inhibition (%): 0% and 4.71%
[3]; 0.00001 μM, listed as S-Calpepin, 10 pM
  CPE inhibition (%): 5.52% and 8.92%
[3]; 0.0001 μM, listed as S-Calpepin
  CPE inhibition (%): 7.19% and 6.77%
[3]; 0.001 μM, listed as S-Calpepin
  CPE inhibition (%): 23.15% and 18.35%
[3]; 0.01 μM, listed as S-Calpepin
  CPE inhibition (%): 22.53% and 19.69%
[3]; 0.1 μM, listed as S-Calpepin
  CPE inhibition (%): 56.52% and 41.43%
[3]; 1 μM, listed as S-Calpepin
  CPE inhibition (%): 87.89% and 72.23%
[3]; 10 μM, listed as S-Calpepin
  CPE inhibition (%): 85.17% and 78.3%
[4]; 0.0781 μM
  Cell viability (% control): 99.91 % control and 99.99 % control and 93.43 % control
[4]; 0.1563 μM
  Cell viability (% control): 101.27 % control and 99.33 % control and 91.02 % control
[4]; 0.3125 μM
  Cell viability (% control): 98.12 % control and 96.79 % control and 88.9 % control and 104.51 % control and 93.11 % control and 88.49 % control
[4]; 0.625 μM
  Cell viability (% control): 102.02 % control and 99.32 % control and 91.53 % control and 106.07 % control and 99.18 % control and 92.52 % control
[4]; 1.25 μM
  Cell viability (% control): 101.8 % control and 101.21 % control and 92.78 % control and 102.28 % control and 98.11 % control and 94.97 % control
[4]; 2.5 μM
  Cell viability (% control): 103.7 % control and 100.66 % control and 93.92 % control and 107.86 % control and 99.28 % control and 84.04 % control
[4]; 5 μM
  Cell viability (% control): 103.66 % control and 103.11 % control and 94.78 % control and 109.88 % control and 106.46 % control and 91.66 % control
[4]; 10 μM
  Cell viability (% control): 95.16 % control and 96.86 % control and 93.25 % control and 107.42 % control and 101.38 % control and 83.78 % control
[4]; VERO-CCL81, 72 h
  cytotoxicity (in words): no cytotoxicity up to low micromolar concentrations
[5]; LC-HK2, 72 h
  cytotoxicity (in words): no cytotoxicity up to low micromolar concentrations
[5]; 0.0006 μM
  Cell viability (% control): 101.91 % control and 100.87 % control and 100.74 % control
[5]; 0.0012 μM
  Cell viability (% control): 103 % control and 98.5 % control and 94.37 % control
[5]; 0.0024 μM
  Cell viability (% control): 103.56 % control and 100.06 % control and 97.94 % control
[5]; 0.0049 μM
  Cell viability (% control): 100.56 % control and 101.52 % control and 96.13 % control
[5]; 0.0098 μM
  Cell viability (% control): 103.39 % control and 98.29 % control and 93.66 % control
[5]; 0.0195 μM
  Cell viability (% control): 101 % control and 102.2 % control and 97.31 % control
[5]; 0.0391 μM
  Cell viability (% control): 101.11 % control and 100.82 % control and 93.61 % control
[5]; 0.0781 μM
  Cell viability (% control): 95.36 % control and 95.43 % control and 89.73 % control and 94.91 % control and 94.76 % control and 87.15 % control
[5]; 0.1563 μM
  Cell viability (% control): 94.91 % control and 93.6 % control and 89 % control and 98.33 % control and 105.61 % control and 98.34 % control
[5]; 0.3125 μM
  Cell viability (% control): 97.71 % control and 92.81 % control and 89.53 % control and 99.96 % control and 101.2 % control
[5]; 0.625 μM
  Cell viability (% control): 99.27 % control and 95.19 % control and 89.18 % control and 98.53 % control and 102.88 % control and 100.16 % control
[5]; 1.25 μM
  Cell viability (% control): 94.67 % control and 92.11 % control and 87.48 % control and 95.09 % control and 95.4 % control and 94.79 % control
[5]; 2.5 μM
  Cell viability (% control): 94.03 % control and 92.7 % control and 88.37 % control and 89.79 % control and 94.67 % control and 93.9 % control
[5]; 5 μM
  Cell viability (% control): 91.36 % control and 87.95 % control and 86.97 % control and 86.06 % control and 93.58 % control and 92 % control
[5]; 10 μM
  Cell viability (% control): 83.09 % control and 79.77 % control and 75 % control and 90.37 % control and 93.49 % control and 89.11 % control
[5]; 100 μM
  Cell viability (% control): 73.52 % control and 81.33 % control and 73.97 % control

Reference: publication PMC10584882 (Communications Biology, 2023)
